From ChEMBL document CHEMBL1143859, “Identification and synthesis of a unique thiocarbazate cathepsin L inhibitor” (Bioorg Med Chem Lett, 2008)

These compounds were tested against Procathepsin L (Homo sapiens, UniProt P07711) (assay: Inhibition of cathepsin L).
Chain of Procathepsin L (P07711 whole entry): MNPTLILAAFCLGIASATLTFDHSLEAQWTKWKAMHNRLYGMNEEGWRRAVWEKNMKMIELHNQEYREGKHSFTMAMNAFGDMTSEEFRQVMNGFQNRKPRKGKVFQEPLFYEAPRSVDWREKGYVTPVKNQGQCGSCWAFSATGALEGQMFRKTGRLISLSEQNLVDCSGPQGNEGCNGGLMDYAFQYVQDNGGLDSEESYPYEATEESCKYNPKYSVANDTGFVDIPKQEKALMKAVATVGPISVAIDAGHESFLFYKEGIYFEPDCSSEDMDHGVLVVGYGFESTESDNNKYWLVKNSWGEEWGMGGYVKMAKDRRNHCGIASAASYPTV

**Q.** Which IC50 does the source give for `CCc1ccccc1NC(=O)CSC(=O)NNC(=O)[C@@H](N)Cc1c[nH]c2ccccc12` here?
**A.** Its IC50 is 133 nM.

**Q.** For `CN(C)C(=O)CSc1nnc([C@@H](N)Cc2c[nH]c3ccccc23)o1`, which IC50 is on record?
**A.** The IC50 was 170 nM.

**Q.** For `CCN(CC)C(=O)CSc1nnc([C@@H](N)Cc2c[nH]c3ccccc23)o1`, which IC50 is on record?
**A.** Its IC50 is 510 nM.

**Q.** Which IC50 does the source give for `Cc1cccc(NC(=O)CSc2nnc(C(N)Cc3c[nH]c4ccccc34)o2)c1C` (single isomer, unassigned) here?
**A.** Its IC50 is 300 nM.

**Q.** With `Cc1ccc(NC(=O)CSc2nnc(C(N)Cc3c[nH]c4ccccc34)o2)c(C)c1` (single isomer, unassigned) as the compound, how does the IC50 read?
**A.** The IC50 was 160 nM.

**Q.** For `CCc1ccccc1NC(=O)CSc1nnc(C(N)Cc2c[nH]c3ccccc23)o1` (single isomer, unassigned), which IC50 is on record?
**A.** Its IC50 is 130 nM.
